Paper PMC5713445, “Ergostane-Type Sterols from King Trumpet Mushroom (Pleurotus eryngii) and Their Inhibitory Effects on Aromatase” (International Journal of Molecular Sciences, 2017)

Molecular target: T1, human recombinant aromatase (Homo sapiens, UniProt P11511)
T1 sequence (P11511 1-503): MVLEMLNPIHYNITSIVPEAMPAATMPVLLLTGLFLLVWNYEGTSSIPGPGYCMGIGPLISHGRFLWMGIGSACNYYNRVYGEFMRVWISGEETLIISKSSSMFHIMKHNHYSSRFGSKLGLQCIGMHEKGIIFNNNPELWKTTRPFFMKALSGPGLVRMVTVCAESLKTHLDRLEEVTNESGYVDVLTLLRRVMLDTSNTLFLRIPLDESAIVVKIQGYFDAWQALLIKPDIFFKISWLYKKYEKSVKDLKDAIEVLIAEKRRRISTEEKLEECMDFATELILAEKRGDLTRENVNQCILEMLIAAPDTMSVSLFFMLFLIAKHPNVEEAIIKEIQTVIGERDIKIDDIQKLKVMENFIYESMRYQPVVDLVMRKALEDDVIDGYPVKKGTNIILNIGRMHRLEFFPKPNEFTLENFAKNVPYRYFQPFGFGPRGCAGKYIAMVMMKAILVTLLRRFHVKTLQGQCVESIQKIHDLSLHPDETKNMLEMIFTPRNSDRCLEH
Test: Inhibitory assay against human recombinant aromatase (Human CYP19 + P450 Reductase SUPERSOMES, dibenzylfluorescein)
Type: biochemical
Details: for aromatase inhibitory activity (in words): tested at 10, 30 and 100 µM (4, 6: 1, 3 and 10 µM); for IC50: three determinations
Text: Each value represents the mean ± the standard error (S.E.) of three determinations.
Dibenzylfluorescein (DBF) and Human CYP19 + P450 Reductase SUPERSOMES (human recombinant aromatase) were obtained from BD Biosciences (Heidelberg, Germany). The physical data were obtained by the following instruments: a Yanagimoto micro-melting point apparatus for melting points (uncorrected); a JASCO DIP-1000 digital polarimeter for Optical rotations; a Perkin-Elmer 1720X FTIR spectrophotometer for IR spectra; an Agilent-NMR-vnmrs600 for the ^1H and ^13C NMR spectra (^1H: 600 MHz; ^13C: 150 MHz) in CDCl3 with tetramethylsilane as the internal standard; a Hitachi M-4000H double-focusing mass spectrometer for EIMS (70 eV). Column chromatography was carried out by Silica gel (70–230 mesh, Merck, Darmstadt, Germany) and silica gel 60 (230–400 mesh, Nacalai Tesque, Inc., Kyoto, Japan). HPLC was performed by the following systems; system I: Cosmosil 5SL-II column (25 cm × 20 mm i.d.) (Nacalai Tesque, Inc.), hexane/EtOAc (5:1), 8.0 mL/min, 35 °C; system II: Shimpack PREP-ODS (25 cm × 20 mm i.d.) (Shimadzu corp., Kyoto, Japan), MeOH, 8.0 mL/min, 35 °C; system III: Cosmosil 5C18-MS-II column (25 cm × 20 mm i.d.) (Nacalai Tesque, Inc.), MeOH/H2O (95:5), flow rate, 4.0 mL/min, 35 °C; system IV: Cosmosil 5C18-MS-II column, MeOH/H2O (9:1), 4.0 mL/min, 35 °C.
Inhibitory assay against human recombinant aromatase was performed as described previously.

| Molecule | aromatase inhibitory activity (in words) | IC50 [µM] |
| --- | --- | --- |
| 5α,6α-epoxyergost-8(14)-ene-3β,7α-diol [Compound 2] | weakly inhibited aromatase |  |
| CC(C)[C@@H](C)/C=C/[C@@H](C)[C@H]1CC=C2C3=C(CC[C@@]21C)[C@@]1(C)CC[C@H](O)C[C@@]12O[C@H]2[C@@H]3O [Compound 1, (22E)-5α,6α-epoxyergosta-8,14,22-triene-3β,7β-diol] |  | 17.3 |
| CC(C)[C@@H](C)/C=C/[C@@H](C)[C@H]1CC[C@H]2C3=CCC4C[C@@H](O)CC[C@]4(C)[C@H]3CC[C@]12C (stereo partly drawn) [Compound 3, (22E)-Ergosta-7,22-dien-3β-ol] |  | 66.1 |
| CC(C)[C@@H](C)/C=C/[C@@H](C)[C@H]1CC[C@H]2C3=CC=C4C[C@@H](O)CC[C@]4(C)[C@H]3CC[C@]12C [Compound 4, (22E)-ergosta-5,7,22-trien-3β-ol] | comparable aromatase inhibitory activities to aminoglutethimide | 8.1 |
| CC(C)[C@@H](C)/C=C/[C@@H](C)[C@H]1CC[C@H]2c3ccc4c(c3CC[C@]12C)CC[C@H](O)C4 [Compound 5, (22E)-19-norergosta-5,7,9,22-tetraen-3β-ol] |  | 33.8 |
| CO[C@@H]1C=C2[C@@H]3CC[C@H]([C@H](C)/C=C/[C@H](C)C(C)C)[C@@]3(C)CC[C@@H]2[C@@]2(C)CC[C@H](O)C[C@]12O [Compound 6, (22E)-6β-methoxyergosta-7,22-diene-3β,5α-diol] | comparable aromatase inhibitory activities to aminoglutethimide | 2.8 |
| CC(C)[C@@H](C)/C=C/[C@@H](C)[C@H]1CC[C@H]2C3=CC(=O)[C@@]4(O)C[C@@H](O)CC[C@]4(C)[C@@]3(O)CC[C@]12C [Compound 7, (22E)-3β,5α,9α-trihydroxyergosta-7,22-dien-6-one] | weakly inhibited aromatase | > 100 |
| CC(C)[C@@H](C)/C=C/[C@@H](C)[C@H]1CC[C@H]2C3=CC(=O)[C@@]4(O)C[C@@H](O)CC[C@]4(C)[C@H]3CC[C@]12C [Compound 8, (22E)-3β,5α-dihydroxyergosta-7,22-dien-6-one] | weakly inhibited aromatase | > 100 |
| CC(C)[C@@H](C)/C=C/[C@@H](C)[C@H]1CC[C@@H]2[C@]1(C)CC[C@H]1[C@]23C=C[C@]2(C[C@@H](O)CC[C@]12C)OO3 [Compound 9, ergosterol peroxide] | weakly inhibited aromatase | > 100 |
| CC(C)[C@@H](C)/C=C/[C@@H](C)[C@H]1CC[C@@H]2[C@]1(C)CC=C1[C@]23C=C[C@]2(C[C@@H](O)CC[C@]12C)OO3 [Compound 10, 9,11-dehydroergosterol peroxide] |  | 32.6 |
